Experimental data reported in patent US20030212123A1, “COX-2 selective carprofen for treating pain and inflammation in dogs” (Pfizer Inc., priority 1997, published 2003).
Where two headings read alike, the source gives them in different places.

Columns and labels:
Format in all cases: cell-based, dog
canine COX-1 = biological target: T1, canine COX-1 (Canis lupus familiaris, UniProt Q8HZR1); experiment: Canine COX-1 activity: washed canine platelets, A23187-stimulated TXB2 by EIA; settings: results of repeated tests averaged
T1 construct: from tissue; host or cells: washed platelets from donor dog blood
T1 sequence (Q8HZR1 28-603): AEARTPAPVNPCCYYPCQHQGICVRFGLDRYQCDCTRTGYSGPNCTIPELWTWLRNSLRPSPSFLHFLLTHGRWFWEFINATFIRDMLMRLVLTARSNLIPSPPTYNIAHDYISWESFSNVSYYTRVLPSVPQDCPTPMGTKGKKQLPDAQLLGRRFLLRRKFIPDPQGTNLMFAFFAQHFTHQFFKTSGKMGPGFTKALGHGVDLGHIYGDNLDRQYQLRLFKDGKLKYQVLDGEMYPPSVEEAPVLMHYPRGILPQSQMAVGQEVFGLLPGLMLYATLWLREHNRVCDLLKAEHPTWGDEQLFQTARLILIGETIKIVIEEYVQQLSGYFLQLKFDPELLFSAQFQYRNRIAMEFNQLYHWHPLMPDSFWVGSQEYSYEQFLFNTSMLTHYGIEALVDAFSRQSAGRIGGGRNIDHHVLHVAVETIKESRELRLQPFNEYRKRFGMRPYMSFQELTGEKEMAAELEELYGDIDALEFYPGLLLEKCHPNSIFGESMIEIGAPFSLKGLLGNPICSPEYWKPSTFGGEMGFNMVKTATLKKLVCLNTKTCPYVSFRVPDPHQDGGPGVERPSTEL
Method: Protocol for Evaluation of Canine COX-1 Activity
Test drug compounds were solubilized and diluted the day before the assay was to be conducted with 0.1 mL of DMSO/9.9 mL of Hank's balanced salts solution (HBSS), and stored overnight at 4° C. On the day that the assay was carried out, citrated blood was drawn from a donor dog, centrifuged at 190×g for 25 min at room temperature, and the resulting platelet-rich plasma was then transferred to a new tube for further procedures. The platelets were washed by centrifuging at 1500×g for 10 min at room temperature. The platelets were washed with platelet buffer comprising Hank's buffer (Ca free) with 0.2% bovine serum albumin (BSA) and 20 mM HEPES. […] Then, 100 μl of canine washed platelets were added and the samples were incubated at 37° C. for 15 min, after which the reaction was stopped by adding 20 μl of 77 mM EDTA. The plates were then centrifuged at 2000×g for 10 min at […], after which 50 μl of supernatant was assayed for thromboxane B2 (TXB2) by enzyme-immunoassay (EIA).

canine COX-2 [1] = biological target: T2, canine COX-2 (Canis lupus familiaris, UniProt Q8SPQ9); experiment: Canine COX-2 activity: LPS-treated DH82 canine histocytoma cells, PGE2 by EIA
T2 construct: host or cells: DH82 canine histocytoma cells, LPS-treated overnight
T2 sequence (Q8SPQ9 18-604): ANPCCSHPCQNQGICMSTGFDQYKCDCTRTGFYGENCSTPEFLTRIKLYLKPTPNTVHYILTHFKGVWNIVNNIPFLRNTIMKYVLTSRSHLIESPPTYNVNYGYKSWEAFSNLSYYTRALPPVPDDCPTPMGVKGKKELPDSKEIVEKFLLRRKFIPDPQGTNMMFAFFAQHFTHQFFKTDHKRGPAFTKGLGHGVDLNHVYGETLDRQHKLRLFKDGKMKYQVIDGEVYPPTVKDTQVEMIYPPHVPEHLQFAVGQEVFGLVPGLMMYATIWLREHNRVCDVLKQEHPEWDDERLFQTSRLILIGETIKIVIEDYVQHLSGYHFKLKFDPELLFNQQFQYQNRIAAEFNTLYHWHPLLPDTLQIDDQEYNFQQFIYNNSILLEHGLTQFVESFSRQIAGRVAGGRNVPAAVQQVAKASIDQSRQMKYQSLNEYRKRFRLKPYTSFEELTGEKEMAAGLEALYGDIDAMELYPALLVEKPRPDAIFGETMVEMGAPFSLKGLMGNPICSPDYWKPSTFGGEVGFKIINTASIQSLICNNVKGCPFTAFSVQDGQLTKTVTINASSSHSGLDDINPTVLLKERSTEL
Method: (§1) Protocol for Evaluation of Canine COX-2 Activity
(§2) A canine histocytoma (macrophage-like) cell line from the American Type Culture Collection designated as DH82, was used in setting up the protocol for evaluating the COX-2 inhibition activity of various test drug compounds. There was added to flasks of these cells 10 μg/mL of LPS, after which the flask cultures were incubated overnight. The same test drug compound dilutions as described above for the COX-1 protocol were used for the COX-2 assay and were prepared the day before the assay was carried out. […] The test sample suspensions were incubated for 1 hr and then centrifuged at 1000 rpm for 10 min at 4° C., after which 50 μl aliquots of each test drug sample were delivered to EIA plates. The EIA was performed for prostaglandin E2 (PGE2), and the pg/mL concentration of PGE2 was calculated from the standard line included on each plate. […] The results were averaged, and a single COX-1:COX-2 ratio was calculated.

canine COX-2 [2] = experiment: as above
Method: as §1, §2

[3] = DH82 cells, PGE2, results of repeated tests averaged, read-out: COX-2 IC50
[4] = ratio of canine COX-1 IC50 to COX-2 IC50, higher = more COX-2 selective

SMILES	IC50 (canine COX-1) [nM]	IC50 (canine COX-2 [1]; [3]) [nM]	COX-1/COX-2 Ratio (canine COX-2 [2]; [4])	IC50 (canine COX-2 [1]) [nM]	COX-1/COX-2 Ratio (canine COX-2 [2])
O=C(O)c1ccccc1Nc1cccc(C(F)(F)F)c1 [Flufenamic acid, 2-{[3-(trifluoromethyl)phenyl]amino}-benzoic acid]	2310	47.5	48.6		
COc1ccc2cc(CC(=O)O)ccc2c1 [6-MNA, 6-methoxy-2-naphthyl-acetic acid]	28300	4210	6.72		
O=C(O)Cc1ccc(-c2ccccc2)cc1 [Felbinac, [1,1′-biphenyl]-4-acetic acid]	2540	362	7.01		
CN1C(C(=O)Nc2ccccn2)=C(O)c2ccccc2S1(=O)=O [Piroxicam, 4-hydroxyy-2-methyl-N-2-pyridinyl-2H-1,2-benzothiazine-3-carboxamide-1,1-dioxide]	223				
Cc1c(Nc2ncccc2C(=O)O)cccc1C(F)(F)F [Flunixin, 2-{[2-methyl-3-(trifluoromethyl)-phenyl]amino}-3-pyridinecarboxylic acid; compounded with 1-deoxy-1-(methylamino)-D-glucitol(1:1)]	7.68	12.1	0.635		
Cc1cccc(Nc2ccccc2C(=O)O)c1C [Mefenamic acid, 2-[(2,3-dimethylphenyl)amino]-benzoic acid]	403		11.1	36.2	
Cc1ccc(Cl)c(Nc2ccccc2C(=O)O)c1Cl [Meclofenamic acid, 2-[(2,6-dichloro-3-methylphenyl)amino]-benzoic acid]	737	47.8	15.4		
CC(C(=O)O)c1ccc(-c2ccccc2)c(F)c1 (stereo not drawn) [Flurbiprofen, 2-fluoro-α-methyl-[1,1′-biphenyl]-4-acetic acid]	505				
NC(=O)N1C(=O)C(C(=O)c2cccs2)c2cc(Cl)ccc21 (stereo not shown) [Tenidap, 5-chloro-2,3-dihydro-3-(hydroxy-2-thienylmethylene)-2-oxo-1H-indole-1-carboxamide]	469				
C=CCOc1ccc(CC(=O)O)cc1Cl [Alclofenac, 3-chloro-4-(2-propenyloxy)-benzene acetic acid]	13200	7410	1.78		
C[C@H](C(=O)O)c1ccc2c(c1)[nH]c1ccc(Cl)cc12 [Carprofen (S-), (S)-6-chloro-α-methyl-carbazole-2-acetic acid]	6710			37.1	
CC(C(=O)O)c1cccc(C(=O)c2ccccc2)c1 (stereo not drawn) [Ketoprofen, 3-benzoyl-α-methyl-benzeneacetic acid]				123	
CCc1cccc2c3c([nH]c12)C(CC)(CC(=O)O)OCC3 (stereo not shown) [Etodolac, 1,8-diethyl-1,3,4,9-tetrahydro-pyrano[3,4-b]indole-1-acetic acid]	1330			2570	0.517
NC(=O)N1C(=O)C(C(=O)c2cccs2)c2cc(F)c(Cl)cc21 (stereo not shown) [Ilonidap, 6-chloro-5-fluoro-2,3-dihydro-(hydroxy-2-thienylmethylene)-2-oxo-1H-indole-1-carboxamide]	472	270	1.75		
C[C@@H](C(=O)O)c1ccc2c(c1)[nH]c1ccc(Cl)cc12 [Carprofen (R-)]	> 25000			5970	
Cc1c(Cl)cccc1Nc1ccccc1C(=O)O [Tolfenamic acid, N-(3-chloro-o-tolyl)-anthranilic acid]	206	13.7	15.0		
CCCCC1C(=O)N(c2ccccc2)N(c2ccccc2)C1=O [Phenylbutazone, 4-butyl-1,2-diphenyl-3,5pyrazolidinedione]		3790			
CS(=O)(=O)Nc1ccc([N+](=O)[O-])cc1Oc1ccccc1 [Nimesulide, 4′-nitro-2′-phenoxymethanesulfonanilide]				56.5	
CC(=O)Oc1ccccc1C(=O)O [Aspirin, 2-(acetyloxy)-benzoic acid]	34300		<0.343	> 100000	
CS(=O)(=O)Nc1ccc([N+](=O)[O-])cc1OC1CCCCC1 [NS-398, N-[2-(cyclohexyloxy)-4-nitrophenyl]-methanesulfonamide]	587				
O=C(O)c1cccnc1Nc1cccc(C(F)(F)F)c1 [Niflumic acid, 2-[3-(trifluoromethyl)anilino]nicotinic acid]	1030	46.4	22.2		
COc1ccc2cc(C(C)C(=O)O)ccc2c1 (stereo not drawn) [Naproxen, 6-methoxy-α-methyl-2-naphthaleneacetic acid]				626	
Cc1cnc(NC(=O)C2=C(O)c3ccccc3S(=O)(=O)N2C)s1 [Meloxicam, 4-hydroxy-2-methyl-N-(5-methyl-2-thiazolyl)-2H-1,2-benzothiazine-3-carboxamide]	891				
